We go through 60 molecules from patent US7994318B2, “Coumarin derivatives useful as TNFα inhibitors” (Chugai Seiyaku Kabushiki Kaisha, priority 2000, dated 2011).

The IC50 is the midpoint of a concentration-inhibition curve.

For the first experiment, the system named is TNFα. The experiment can be described thus: In vitro assay: TNFα ELISA of supernatants of LPS-stimulated human PBMC. The class given is cell-based. Conditions: Homo sapiens, PBMC, human PBMC pretreated with drug 60 min, stimulated with LPS (E. coli O55:B5) 100 ng/mL, overnight culture, TNFα in supernatant by ELISA; read-out: 50% Inhibition of TNFα level (IC50). The protocol:
Enzyme-linked immunosorbent assays (ELISA) for TNFα can be performed in a conventional manner (Blood, 75, 40-47 (1990)). Human PBMC are isolated from heparinized venous blood obtained from healthy volunteers by Ficoll-Hypaque density centrifugation. The cells are cultured in RPMI1640 medium supplemented with 5% heat-inactivated fetal calf serum and antibiotics. PBMC (5×10E5 cells/mL) in 0.2 mL aliquot are pretreated with drugs in DMSO for 60 min at 37° C. in 96 well round-bottomed tissue culture plates. Thereafter, PBMC in the presence or absence of compound are stimulated with 1 mg/mL LPS from E. coli O55:B5 at a final concentration of 100 ng/mL. After overnight culture, the supernatants are harvested and assayed immediately for TNFα levels from each well. The concentration of TNFα in the supernatant is determined by human TNFα ELISA Kit according to the manufacture's directions.
Active compounds are characterized by the concentration of the compound that caused 50% inhibition of TNFα level (IC50).
A general note: In an ELISA, binding on a coated surface is turned into a signal by an enzyme label.
Regarding `Cc1c(Cc2ccccc2)c(=O)oc2c(C=O)c(OC(=O)N(C)C)ccc12` [Example 6, dimethyl carbamic acid 2-oxo-2H-3-benzyl-4-methyl-8-formyl-1-benzopyran-7-yl ester], the IC50 was 12.9 µM.
For `Cc1c(Cc2ccccc2)c(=O)oc2cc(Cn3ccnc3N)ccc12` [Example 25, 2-oxo-3-benzyl-4-methyl-7-(2-aminoimidazol-1-yl-methyl)-1H-benzopyrane], the IC50 worked out at 11.8 µM.
Consider `Cc1c(Cc2ccccc2)c(=O)oc2cc(OC(=O)N(C)C)ccc12` [Example 1, dimethyl carbamic acid 2-oxo-2H-3-benzyl-4-methyl-1-benzopyran-7-yl ester], for which the IC50 came to 0.36 µM.
For the molecule `CN(C)C(=O)Oc1ccc2c(-c3cccnc3)c(Cc3ccccc3)c(=O)oc2c1` [Example 8, dimethyl carbamic acid 2-oxo-2H-3-benzyl-4-(m-pyridyl)-1-benzopyran-7-yl ester], the IC50 came out at 18.7 µM.
Same read-out and setting: to `COc1cc2c(C)c(Cc3ccccc3)c(=O)oc2cc1OC(=O)N(C)C` [Example 3, dimethyl carbamic acid 2-oxo-2H-3-benzyl-4-methyl-6-methoxy-1-benzopyran-7-yl ester] belongs 0.58 µM; to `Cc1c(Cc2ccccc2)c(=O)oc2cc(OC(=O)N(C)C)c(Cl)cc12` [Example 2, dimethyl carbamic acid 2-oxo-2H-3-benzyl-4-methyl-6-chloro-1-benzopyran-7-yl ester], 0.09 µM; to `Cc1c(Cc2ccccc2)c(=O)oc2cc(OC(=O)N(C)C)cc(F)c12` [Example 10, dimethyl carbamic acid 2-oxo-2H-3-benzyl-4-methyl-5-fluoro-1-benzopyran-7-yl ester], < 0.6 µM.

The experiment is the same for the next values; noted with them: human PBMC pretreated with drug 60 min, stimulated with LPS (E. coli O55:B5) 100 ng/mL, overnight culture, TNFα in supernatant by ELISA; listed as 14-4; read-out: 50% Inhibition of TNFα level (IC50).
Take `Cc1c(Cc2ccccc2)c(=O)oc2cc(OC(=O)N(C)C)cc(F)c12` [Example 10, dimethyl carbamic acid 2-oxo-2H-3-benzyl-4-methyl-5-fluoro-1-benzopyran-7-yl ester]: the concentration for half-maximal inhibition (IC50) was 0.44 µM.

The same experiment, now with this note: human PBMC pretreated with drug 60 min, stimulated with LPS (E. coli O55:B5) 100 ng/mL, overnight culture, TNFα in supernatant by ELISA; read-out: 50% Inhibition of TNFα level (IC50).
Regarding `Cc1c(Cc2ccccc2)c(=O)oc2cc(C(F)C#N)ccc12` (centres unmarked) [Example 26-24], the IC50 was 1.7 µM.
The same measure, in the same setting: the value for `Cc1c(Cc2ccccc2)c(=O)oc2cc(Cn3ccnc3N)c(Cl)cc12` [Example 26-16] was 8.6 µM.
The same measure, in the same setting: to `Cc1c(Cc2cccc(NS(=O)(=O)C(C)C)c2)c(=O)oc2cc(Oc3ncccn3)c(Cl)cc12` [Example 20-47] belongs 0.31 µM; to `CC(=O)NCC(=O)Nc1cccc(Cc2c(C)c3cc(Cl)c(Oc4ncccn4)cc3oc2=O)c1` [Example 20-30], 5.8 µM.
The same measure, in the same setting: to `CC(=O)Nc1ccc(Cc2c(C)c3ccc(OC(=O)N(C)C)cc3oc2=O)cc1` [Example 14-61] belongs 5.8 µM.
As for `Cc1c(Cc2cccc(N)c2)c(=O)oc2cc(Oc3ncccn3)c(Cl)cc12` [Example 20-26], the IC50 amounted to 9.8 µM.
Still for that read-out and setting: the value for `CC(=O)Nc1cccc(Cc2c(C)c3c(F)cc(Oc4ncccn4)cc3oc2=O)c1` [Example 20-39] was 5.4 µM; that for `CCc1c(Cc2cccc(NC(C)=O)c2)c(=O)oc2cc(Oc3ncccn3)ccc12` [Example 20-54] was 6.7 µM; that for `Cc1c(Cc2cccnc2)c(=O)oc2c(C)c(OC(=O)N(C)C)ccc12` [Example 14-33] was 8.4 µM.
For `Cc1c(Cc2ccccn2)c(=O)oc2cc(OC(=O)N(C)C)ccc12` [Example 14-30], the IC50 turned out to be 6.47 µM.
On the same count and under the same terms, to `Cc1c(Cc2ccccc2)c(=O)oc2cc(OC(=O)N(C)C)c(C#C[Si](C)(C)C)cc12` [Example 14-18] belongs 3.9 µM; to `Cc1c(Cc2cccc(NS(C)(=O)=O)c2)c(=O)oc2cc(Oc3ncccn3)c(Cl)cc12` [Example 20-41], < 0.6 µM; to `Cc1c(Cc2cccc(N(C)C)c2)c(=O)oc2cc(Oc3ncccn3)c(Cl)cc12` [Example 20-27], 5.1 µM.
On the same count and under the same terms, the value for `CCc1c(Cc2cccc(NC(C)=O)c2)c(=O)oc2cc(Oc3ncccn3)c(Cl)cc12` [Example 20-57] was 3.6 µM.
Same read-out and setting: to `CCc1cc2c(C)c(Cc3ccccc3)c(=O)oc2cc1OC(=O)N(C)C` [Example 14-9] belongs 4.6 µM; to `CC(=O)Nc1cccc(Cc2c(C)c3cc(Cl)c(Oc4ncccn4)cc3oc2=O)c1` [Example 20-43], 3.1 µM; to `Cc1c(Cc2cccnc2)c(=O)oc2cc(OC(=O)N(C)C)ccc12` [Example 14-31], 2.2 µM.
Consider `CCc1c(Cc2cccc(NC(C)=O)c2)c(=O)oc2cc(Oc3ncccn3)cc(F)c12` [Example 20-60], for which the IC50 amounted to 4.4 µM.
In the case of `Cc1c(Cc2ccccc2)c(=O)oc2cc(Oc3ncccn3)c(Br)cc12` [Example 20-4], the IC50 turned out to be 9.5 µM.
The same measure, in the same setting: to `Cc1c(Cc2cccc([N+](=O)[O-])c2)c(=O)oc2cc(Oc3nccs3)ccc12` [Example 22-2] belongs 6.6 µM; to `CCc1c(Cc2ccncc2)c(=O)oc2cc(OC(=O)N(C)C)c(Cl)cc12` [Example 14-81], 0.34 µM; to `CCOC(=O)CC(=O)Nc1cccc(Cc2c(CC)c3c(F)cc(Oc4ncccn4)cc3oc2=O)c1` [Example 20-61], 0.65 µM.
On the same count and under the same terms, the value for `Cc1c(Cc2cccc(NC(=O)CC(=O)O)c2)c(=O)oc2cc(Oc3ncccn3)c(Cl)cc12` [Example 20-34] was 10.6 µM; that for `Cc1cc2c(C)c(Cc3ccccc3)c(=O)oc2cc1OC(=O)N(C)C` [Example 14-14] was 0.4 µM.
The same measure, in the same setting: the value for `Cc1c(Cc2ccccc2)c(=O)oc2cc(Cn3ccnc3N)ccc12` [Example 25, 2-oxo-3-benzyl-4-methyl-7-(2-aminoimidazol-1-yl-methyl)-1H-benzopyrane] was 13.7 µM.
As to `CCOC(=O)CC(=O)Nc1cccc(Cc2c(C)c3cc(Cl)c(OC(=O)N(C)C)cc3oc2=O)c1` [Example 14-26], the concentration for half-maximal inhibition (IC50) amounted to 0.05 µM.
On the same count and under the same terms, to `CN(C)C(=O)Oc1ccc2c(-c3ccccc3)c(Cc3ccc(F)cc3)c(=O)oc2c1` [Example 14-84] belongs 1.67 µM; to `CCOC(=O)CCC(=O)Nc1cccc(Cc2c(C)c3cc(Cl)c(Oc4ncccn4)cc3oc2=O)c1` [Example 20-28], 1.2 µM; to `Cc1c(Cc2ccccc2N)c(=O)oc2cc(OC(=O)N(C)C)c(Cl)cc12` [Example 14-20], 0.49 µM.
Still for that read-out and setting: the value for `CC(=O)Nc1cccc(Cc2c(C)c3c(F)cc(OC(=O)N(C)C)cc3oc2=O)c1` [Example 14-7] was 1 µM; that for `CC(=O)Nc1cccc(Cc2c(C)c3ccc(OC(=O)N(C)C)cc3oc2=O)c1` [Example 14-60] was 1.1 µM.
Still for that read-out and setting: to `CCc1c(Cc2cccc([N+](=O)[O-])c2)c(=O)oc2cc(Oc3nccs3)ccc12` [Example 22-11] belongs 3.2 µM.
On to `CCc1c(Cc2ccccc2)c(=O)oc2cc(OC(=O)N(C)C)ccc12` [Example 14-73], for which the 50% inhibitory concentration (IC50) was 1.7 µM.
As to `Cc1c(Cc2cccc(N)c2)c(=O)oc2cc(OC(=O)N(C)C)c(Cl)cc12` [Example 14-24], the IC50 is 0.46 µM.
On the same count and under the same terms, the value for `CCc1c(Cc2cccc(NC(C)=O)c2)c(=O)oc2cc(Oc3nccs3)ccc12` [Example 22-8] was < 0.6 µM; that for `Cc1c(Cc2ccncc2)c(=O)oc2cc(Oc3ncccn3)ccc12` [Example 20-10] was 10.4 µM; that for `Cc1c(Cc2ccccc2)c(=O)oc2cc(Oc3ncccn3)c(I)cc12` [Example 20-5] was 8.8 µM.
On the same count and under the same terms, to `CCOC(=O)CCC(=O)Nc1cccc(Cc2c(C)c3ccc(Oc4ncccn4)cc3oc2=O)c1` [Example 20-21] belongs 2.8 µM; to `Cc1c(Cc2ccc(N)cc2)c(=O)oc2cc(OC(=O)N(C)C)ccc12` [Example 14-66], 5.2 µM; to `CCc1c(Cc2ccncc2)c(=O)oc2cc(OC(=O)N(C)C)ccc12` [Example 14-80], 2.4 µM.
Same read-out and setting: the value for `Cc1c(Cc2cccc(N)c2)c(=O)oc2cc(OC(=O)N(C)C)ccc12` [Example 14-65] was 2.7 µM; that for `Cc1c(Cc2cccc(N(C)C)c2)c(=O)oc2cc(OC(=O)N(C)C)ccc12` [Example 14-72] was 1.9 µM; that for `Cc1c(Cc2ccccc2)c(=O)oc2cc(OC(=O)N(C)C)c([N+](=O)[O-])cc12` [Example 14-17] was 0.12 µM.
For the molecule `COc1cccc(Cc2c(C)c3ccc(OC(=O)N(C)C)cc3oc2=O)c1` [Example 14-45], the IC50 was 3.2 µM.
Turning to `CCc1c(Cc2cccc([N+](=O)[O-])c2)c(=O)oc2cc(Oc3ncccn3)c(Cl)cc12` [Example 20-55], the IC50 was 6.4 µM.
With `Cc1c(Cc2cccc(NC(=O)CCNC(=O)OCc3ccccc3)c2)c(=O)oc2cc(Oc3ncccn3)c(Cl)cc12` [Example 20-32], the IC50 was 11.4 µM.
The same measure, in the same setting: the value for `CC(=O)CC(=O)Nc1cccc(Cc2c(C)c3cc(Cl)c(Oc4ncccn4)cc3oc2=O)c1` [Example 20-42] was 2.2 µM; that for `Cc1c(Cc2ccccc2)c(=O)oc2cc(C=O)ccc12` [Example 26-1] was 6.3 µM; that for `CCc1c(Cc2cccc([N+](=O)[O-])c2)c(=O)oc2cc(Oc3ncccn3)cc(F)c12` [Example 20-58] was 11.9 µM.
The same measure, in the same setting: to `Cc1c(Cc2ccccc2)c(=O)oc2cc(Oc3ncccn3)cc(F)c12` [Example 20-14] belongs 9.7 µM.
On the same count and under the same terms, to `CCc1c(Cc2ccccc2)c(=O)oc2cc(Oc3ncccn3)c(Cl)cc12` [Example 20-50] belongs 4.5 µM.
Consider `Cc1c(Cc2ccc(C(C)C)cc2)c(=O)oc2cc(OC(=O)N(C)C)ccc12` [Example 14-52], for which the IC50 was found to be 11.6 µM.
Same read-out and setting: the value for `CCc1c(Cc2cccc([N+](=O)[O-])c2)c(=O)oc2cc(OC(=O)N(C)C)ccc12` [Example 14-77] was 0.9 µM; that for `Cc1c(Cc2cccc(N)c2)c(=O)oc2cc(Oc3nccs3)ccc12` [Example 22-4] was 6 µM.
